From paper PMC8176454, “Synthesis and Assessment of Novel Probes for Imaging Tau Pathology in Transgenic Mouse and Rat Models” (ACS Chemical Neuroscience, 2021)
“Also recorded” adds a separate entry of the source.

How the values were obtained:
[1] = target: T1, 3R tau151-391 aggregates in cortical sections from SHR24 rats (Homo sapiens, UniProt P10636); test: Binding to SHR24 transgenic rat brain sections; settings: 50 μM, colocalization with AT8
T1 construct: tissue AXON Neuroscience; host or cells: brain (cortex) sections of SHR24 transgenic rats
Excerpt: (§1) Since future PET studies for development of these compounds would require kinetic modeling for their assessment in vivo, we tested their performance in tau transgenic rats. Rat brains and blood volumes are about 6- and 10-fold larger, respectively, than those of mice and thus enable higher resolution imaging and ample volume for repeated blood sampling. We used two transgenic rat lines expressing human-truncated tau comprising the proline-rich region and either three microtubule binding domains (3R tau151-391, SH24)[28] or four microtubule binding domains (4R tau151-391, SHR72).[29] […] However, compared to the SHR24 rat brain sections, there were less inclusions detected, which seems to indicate the compounds have preferential binding toward the three repeat forms of tau in these rat models.
(§2) Fresh frozen rat brain coronal sections (10 μm) were stored on slides at −80 °C until use. Sections were fixed in ice cold acetone for 10 min and air-dried and then rehydrated twice for 5 min with buffer (10 mM PBS with 0.1% Triton X-100) before application of 5% bovine serum albumin for 1 h and two more 5 min buffer washes. Primary monoclonal antibody AT8 (Thermo MN1020, 1:1000) was added overnight at 4 °C, followed by 1 h incubation with a mixture of secondary AlexaFluor555 goat anti-mouse antibody (1:1000) and 50 μM PBB3 or LM229 in 50:50 ethanol/buffer. Following two 5 min washes in buffer, the slides were air-dried and cover-slipped using Fluorsave before analysis. The green autofluorescence of PBB3 and LM229 was visualized using a 488 nm filter and fluorescence of AT8 using a 568 nm filter on a Leica DM6000 microscope.

[2] = system: 3R tau151-391 aggregates in cortical sections from SHR24 rats; test: Binding to SHR24 transgenic rat brain sections; settings: SHR24 (3R) vs SHR72 (4R) brain tissue
Excerpt: as §1, §2

[3] = target: tau aggregates in human globus pallidus/putamen from PSP subjects (Homo sapiens, UniProt P10636); test: Staining of post-mortem PSP brain tissue; settings: colocalized with AT8
Description: To further validate LM229 as a potential radiotracer for translational research, we investigated its binding to tau aggregates in human globus pallidus/putamen from progressive supranuclear palsy (PSP) subjects (Figure 7) and its selectivity for tau over β-amyloid pathology in AD frontal cortex sections (Figure 8). […]
(§3) buffer) for 1 h at room temperature. Following 3 washes in PBS/0.1% Triton X-100, 50 µM LM229 (diluted in 1:1 blocking buffer/ethanol) was then added for 1 h at room temperature. Nuclei were stained with DAPI (0.1mg/ml for 10 min), washed and tissues mounted in FluorSaveTM prior to analysis using fluorescence […]
(§4) Binding affinity of all compounds with tau fibrils
Microscale Thermophoresis was first used to screen whether there were interaction between the compounds and tau fibrils. […] With each compound, two concentrations (1µM and 1nM) were used to mix with 100nM tau fibrils and then loaded to the MST instrument to read out the MST data curve. […]
DRG were incubated with the indicated concentrations of LM229 or PBB3 for 20 minutes at room temperature, washed 3 times in PBS, and imaged on a Leica DMI 4000B microscope using a Leica DFC3000 G camera and the Leica application suite 4.0.0.11706. Fluorescence intensity was measured in 10-16 neurons each from 3 independent cultures using Image J (imagej.nih.gov/ij/). […]

[4] = target: T2, 4R tau151-391 aggregates in brainstem sections from SHR72 rats (Homo sapiens, UniProt P10636); test: Binding to SHR72 transgenic rat brain sections; settings: 50 μM, colocalization with AT8
T2 construct: tissue AXON Neuroscience; host or cells: brain (brainstem) sections of SHR72 transgenic rats
Excerpt: as §1
Fresh frozen rat brain coronal sections (10 μm) were stored on slides at −80 °C until use. Sections were fixed in ice cold acetone for 10 min and air-dried and then rehydrated twice for 5 min with buffer (10 mM PBS with 0.1% Triton X-100) before application of 5% bovine serum albumin for 1 h and two more 5 min buffer washes. […] The green autofluorescence of PBB3 and LM229 was visualized using a 488 nm filter and fluorescence of AT8 using a 568 nm filter on a Leica DM6000 microscope.

[5] = target: T3, tau aggregates in brain of P301S tau mice (Homo sapiens, UniProt P10636, P618S); test: Ex vivo mouse study: i.v. injection, brain sections imaged after 1 h; format: in vivo
T3 construct: from tissue; host or cells: brain of transgenic P301S tau mice (C57Bl/6 background)
Description: We next looked at the ability of LM229 to cross the blood–brain barrier (BBB), a key property of any viable neuro-radiotracer. LM229 was injected intravenously (i.v.) (1 mg/kg weight), and after 1 h, WT and P301S tau mice were perfused-fixed and brain sections were imaged under a fluorescence microscope. […] However, we await a comparison of PBB3 and LM229 by PET imaging to determine their relativity properties as in vivo imaging probes.
Mice were injected intravenously (i.v.) with 50 μM LM229 or PBB3 (DMSO) diluted in 50:50 ethanol/PBS. Animals were then perfused (4% PFA) 1 h post-i.v.

[6] = target: tau (AT8) in AD frontal cortex sections (Homo sapiens, UniProt P10636); test: Staining of post-mortem AD frontal cortex sections, tau
Description: To further validate LM229 as a potential radiotracer for translational research, we investigated its binding to tau aggregates in human globus pallidus/putamen from progressive supranuclear palsy (PSP) subjects (Figure 7) and its selectivity for tau over β-amyloid pathology in AD frontal cortex sections (Figure 8).
In slices from frontal cortex of AD brains, LM229 gave rise to strong signal (Figure 8A), which colocalized with AT8 immunofluorescence (Figure 8B). […]
as §3, §4
Microscale Thermophoresis was first used to screen whether there were interaction between the compounds and tau fibrils. For this procedure 200 µL, 5 µM tau fibrils were mixed with 200 µL, 10 µM NT647-NHS dye and then incubated in dark for 30 minutes. Further dialysis (18 hours, changing the buffer after the first 4 hours) was used to remove the free dye giving a 2.5 µM solution of label led protein. […] With each compound, two concentrations (1µM and 1nM) were used to mix with 100nM tau fibrils and then loaded to the MST instrument to read out the MST data curve. […]

T3 sequence (P10636 1-383 isoform P10636-6 P243S): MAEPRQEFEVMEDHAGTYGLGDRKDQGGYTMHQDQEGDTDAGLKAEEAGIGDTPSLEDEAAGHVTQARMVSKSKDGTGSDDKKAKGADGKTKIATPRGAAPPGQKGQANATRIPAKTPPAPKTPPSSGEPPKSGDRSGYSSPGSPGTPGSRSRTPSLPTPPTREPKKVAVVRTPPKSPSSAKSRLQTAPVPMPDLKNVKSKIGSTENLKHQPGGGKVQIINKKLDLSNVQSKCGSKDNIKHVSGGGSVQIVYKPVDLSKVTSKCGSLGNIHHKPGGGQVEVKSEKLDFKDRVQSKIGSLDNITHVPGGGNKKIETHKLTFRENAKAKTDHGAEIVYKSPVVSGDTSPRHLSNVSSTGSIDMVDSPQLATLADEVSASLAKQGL
T2 sequence (P10636 468-708): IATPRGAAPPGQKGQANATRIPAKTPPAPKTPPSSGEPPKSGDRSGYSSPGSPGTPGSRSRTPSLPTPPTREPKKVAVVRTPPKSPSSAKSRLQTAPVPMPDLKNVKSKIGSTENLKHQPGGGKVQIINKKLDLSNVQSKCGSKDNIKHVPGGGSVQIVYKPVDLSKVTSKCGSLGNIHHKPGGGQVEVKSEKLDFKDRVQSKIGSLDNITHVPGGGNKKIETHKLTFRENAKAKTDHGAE
T1 sequence (P10636 151-360 isoform P10636-5): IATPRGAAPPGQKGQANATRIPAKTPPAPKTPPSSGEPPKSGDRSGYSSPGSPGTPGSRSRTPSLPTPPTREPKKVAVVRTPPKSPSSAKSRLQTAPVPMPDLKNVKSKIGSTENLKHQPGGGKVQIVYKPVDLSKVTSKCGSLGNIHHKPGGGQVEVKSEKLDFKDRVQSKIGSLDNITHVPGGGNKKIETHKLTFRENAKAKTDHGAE
Chain of tau aggregates in human globus pallidus/putamen from PSP subjects (P10636 561-698 limits assumed): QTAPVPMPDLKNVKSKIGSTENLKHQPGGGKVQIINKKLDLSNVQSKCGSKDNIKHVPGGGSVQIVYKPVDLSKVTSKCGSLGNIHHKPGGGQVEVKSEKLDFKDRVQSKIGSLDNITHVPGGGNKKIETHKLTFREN
Chain of tau (AT8) in AD frontal cortex sections (P10636 623-708 limits assumed): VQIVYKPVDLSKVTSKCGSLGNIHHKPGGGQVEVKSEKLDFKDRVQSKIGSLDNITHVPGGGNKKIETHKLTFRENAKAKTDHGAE

Signal on PSP sections [3]: intense signal
Blood–brain barrier crossing ([5]; i.v. 1 mg/kg, 1 h, fluorescence microscopy): crosses the BBB
Signal on AD frontal cortex slices colocalized with AT8 [6]: strong signal
SMILES: CNc1ccc(/C=C/C=C/c2nc3cc(F)c(O)cc3s2)cn1 [LM229]
Binding to pathological aggregated tau in SHR24 rat brain sections [1]: bound with similar properties to pathological aggregated tau
Preference between 3R and 4R tau inclusions in rat models [2]: preferential binding toward the 3R tau inclusions
Binding to tau in SHR72 rat brain sections [4]: bound to tau in brain sections from SHR72 rats
Ex vivo binding in P301S tau brain tissue ([5]; i.v. injection 1 h prior, colocalization with AT8): less non-specific binding and more specific binding to tau aggregates; also recorded: significant specific binding to tau aggregates
